Test results reported in ChEMBL document CHEMBL1148338, “Structure-activity relationships at monoamine transporters for a series of N-substituted 3alpha-(bis[4-fluorophenyl]methoxy)tropanes: comparative molecular field analysis, synthesis, and pharmacological evaluation” (J Med Chem, 2004).

Columns and labels:
Rattus norvegicus = organism: Rattus norvegicus; test: Compound was tested for inhibition of [3H]dopamine uptake (DAUI) in rat synaptosomes; type: functional; details: Brain
[1] = molecular target: Sodium-dependent dopamine transporter (Rattus norvegicus, UniProt P23977); test: biochemical; type: tissue-based, Brain
Chain of Sodium-dependent dopamine transporter (P23977 whole entry): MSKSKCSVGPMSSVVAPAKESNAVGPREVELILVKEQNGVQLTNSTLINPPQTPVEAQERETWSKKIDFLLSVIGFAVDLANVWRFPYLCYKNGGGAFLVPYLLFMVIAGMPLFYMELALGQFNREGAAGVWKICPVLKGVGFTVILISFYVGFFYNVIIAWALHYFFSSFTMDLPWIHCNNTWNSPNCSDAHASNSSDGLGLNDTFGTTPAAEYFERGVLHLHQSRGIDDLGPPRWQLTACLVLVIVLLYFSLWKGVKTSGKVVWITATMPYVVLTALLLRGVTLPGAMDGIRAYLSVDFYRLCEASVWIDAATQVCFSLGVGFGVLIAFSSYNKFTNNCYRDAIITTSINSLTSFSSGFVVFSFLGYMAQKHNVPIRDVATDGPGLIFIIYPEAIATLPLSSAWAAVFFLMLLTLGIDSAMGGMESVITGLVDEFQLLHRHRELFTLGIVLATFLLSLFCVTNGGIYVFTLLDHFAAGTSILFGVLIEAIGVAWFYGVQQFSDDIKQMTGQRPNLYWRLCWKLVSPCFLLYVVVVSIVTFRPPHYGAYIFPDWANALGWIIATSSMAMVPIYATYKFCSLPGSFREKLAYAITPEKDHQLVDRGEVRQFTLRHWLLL
Description: Binding affinity at dopamine transporter in rat brain by [3H]WIN-35428 displacement.

[2] = molecular target: T1, Muscarinic acetylcholine receptor M1 (Rattus norvegicus, UniProt P08482); test: Binding affinity at muscarinic M1 receptor in rat brain by [3H]pirenzepine displacement.; type: tissue-based
T1 sequence (P08482 whole entry): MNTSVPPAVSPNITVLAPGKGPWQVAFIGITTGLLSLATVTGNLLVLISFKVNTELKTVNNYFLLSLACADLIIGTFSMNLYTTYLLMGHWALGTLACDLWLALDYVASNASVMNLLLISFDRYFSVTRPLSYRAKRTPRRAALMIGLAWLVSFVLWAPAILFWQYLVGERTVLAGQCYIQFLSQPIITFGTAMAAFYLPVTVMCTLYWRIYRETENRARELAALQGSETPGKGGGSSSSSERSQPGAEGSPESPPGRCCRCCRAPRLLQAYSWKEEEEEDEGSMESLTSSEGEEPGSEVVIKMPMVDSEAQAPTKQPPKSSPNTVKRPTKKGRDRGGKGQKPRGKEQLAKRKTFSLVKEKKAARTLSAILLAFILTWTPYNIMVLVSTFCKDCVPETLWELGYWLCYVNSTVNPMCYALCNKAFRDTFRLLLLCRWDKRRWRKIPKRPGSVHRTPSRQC

[3] = molecular target: Norepinephrine transporter (Rattus norvegicus, UniProt Q9WTR4); test: Displacement of [3H]nisoxetine from norepinephrine transporter (NET) of rat brain; type: tissue-based
Chain of Norepinephrine transporter (Q9WTR4 whole entry): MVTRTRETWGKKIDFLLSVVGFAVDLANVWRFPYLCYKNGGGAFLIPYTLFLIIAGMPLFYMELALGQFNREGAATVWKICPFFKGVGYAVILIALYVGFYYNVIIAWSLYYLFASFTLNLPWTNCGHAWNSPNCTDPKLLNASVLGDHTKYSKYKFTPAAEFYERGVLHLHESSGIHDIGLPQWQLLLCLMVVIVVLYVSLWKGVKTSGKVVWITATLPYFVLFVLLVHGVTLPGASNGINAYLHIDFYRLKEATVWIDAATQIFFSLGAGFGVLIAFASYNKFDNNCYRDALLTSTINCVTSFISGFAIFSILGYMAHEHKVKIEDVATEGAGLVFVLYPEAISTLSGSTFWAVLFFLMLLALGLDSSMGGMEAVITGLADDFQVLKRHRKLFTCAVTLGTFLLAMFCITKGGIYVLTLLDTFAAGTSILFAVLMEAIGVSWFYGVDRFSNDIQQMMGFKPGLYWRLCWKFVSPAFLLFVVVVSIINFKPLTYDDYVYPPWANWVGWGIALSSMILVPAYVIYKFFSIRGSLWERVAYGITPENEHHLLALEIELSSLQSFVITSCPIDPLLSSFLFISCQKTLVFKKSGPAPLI

[4] = molecular target: Sodium-dependent serotonin transporter (Rattus norvegicus, UniProt P31652); test: Binding affinity at serotonin transporter in rat brain by [3H]-citalopram displacement.; type: tissue-based
Chain of Sodium-dependent serotonin transporter (P31652 whole entry): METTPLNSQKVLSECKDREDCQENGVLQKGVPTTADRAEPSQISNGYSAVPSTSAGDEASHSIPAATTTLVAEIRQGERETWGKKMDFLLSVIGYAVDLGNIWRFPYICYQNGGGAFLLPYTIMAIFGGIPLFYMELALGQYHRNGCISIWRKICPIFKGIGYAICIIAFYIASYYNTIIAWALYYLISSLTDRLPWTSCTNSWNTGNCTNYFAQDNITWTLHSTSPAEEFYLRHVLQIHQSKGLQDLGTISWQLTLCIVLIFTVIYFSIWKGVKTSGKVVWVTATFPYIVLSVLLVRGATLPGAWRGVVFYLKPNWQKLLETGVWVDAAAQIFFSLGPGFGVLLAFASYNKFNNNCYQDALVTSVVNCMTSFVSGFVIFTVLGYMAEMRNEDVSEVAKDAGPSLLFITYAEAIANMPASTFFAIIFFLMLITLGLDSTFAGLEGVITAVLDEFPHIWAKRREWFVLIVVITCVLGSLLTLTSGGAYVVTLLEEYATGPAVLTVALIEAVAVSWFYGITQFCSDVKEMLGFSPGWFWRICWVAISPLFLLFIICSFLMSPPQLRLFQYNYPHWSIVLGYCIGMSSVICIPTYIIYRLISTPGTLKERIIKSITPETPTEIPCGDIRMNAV

[5] = Partition coefficient (logD); details: octanol/water

SMILES | IC50 (Rattus norvegicus) [nM] | Ki [1] [nM] | Ki [2] [nM] | Ki [3] [µM] | Ki [4] [µM] | logD [5]
Fc1ccc(C(OC2CC3CCC(C2)N3CCNCc2ccccc2)c2ccc(F)cc2)cc1 (centres undefined) | 8.1 | – | – | – | – | –
O=C(NCCN1C2CCC1CC(OC(c1ccc(F)cc1)c1ccc(F)cc1)C2)c1ccccc1 (centres undefined) | 6.5 | 13.1 | 556 | 0.637 | 0.597 | –
O=C(CCN1[C@@H]2CC[C@H]1C[C@@H](OC(c1ccc(F)cc1)c1ccc(F)cc1)C2)Nc1ccccc1 | 5 | 27.6 | 3280 | 1.42 | 1.49 | –
COC(=O)[C@@H]1C2CC[C@@H](C[C@@H]1OC(=O)c1ccccc1)N2C (single isomer, unassigned) [COCAINE] | – | – | – | – | – | 1.51
O=C(NCCN1C2CCC1CC(OC(c1ccc(F)cc1)c1ccc(F)cc1)C2)c1cccnc1 (centres undefined) | 14.2 | – | – | – | – | –
Fc1ccc(C(OC2CC3CCC(C2)N3CCOCc2ccccc2)c2ccc(F)cc2)cc1 (centres undefined) | 22.3 | 48.5 | 390 | 3.06 | 1.3 | –
OCCOCCN1C2CCC1CC(OC(c1ccc(F)cc1)c1ccc(F)cc1)C2 (centres undefined) | 48.9 | 42.6 | 336 | 3.65 | 14.3 | 2.01
Fc1ccc(C(OC2CC3CCC(C2)N3CCCOc2ccccc2)c2ccc(F)cc2)cc1 (centres undefined) | 227 | 703 | 9280 | 12.1 | 7.73 | –
NCCN1[C@@H]2CC[C@H]1C[C@@H](OC(c1ccc(F)cc1)c1ccc(F)cc1)C2 | 26 | – | – | 1.42 | 4.6 | –
Fc1ccc(C(OC2CC3CCC(C2)N3CCOCc2cccs2)c2ccc(F)cc2)cc1 (centres undefined) | 18.7 | 65.9 | 613 | 3.45 | 2.09 | 4.19
Fc1ccc(C(OC2CC3CCC(C2)N3CCOCCN2CCOCC2)c2ccc(F)cc2)cc1 (centres undefined) | 659 | 1620 | 15800 | 28.1 | 23 | 2.05
